Data published in ChEMBL document CHEMBL3091357, “Synthesis and biological evaluation of nimesulide based new class of triazole derivatives as potential PDE4B inhibitors against cancer cells” (Bioorg Med Chem Lett, 2013).
Each block holds one molecule with its values, some of them ahead of it. The source made the active and inactive calls. The calls are words filed in the database; no cut-off is given here.

Key:
[1] = molecular target: T1, 3',5'-cyclic-AMP phosphodiesterase 4B (Homo sapiens, UniProt Q07343); assay: Inhibition of recombinant His-tagged PDE4B1 (unknown origin) expressed in insect Sf9 cells using cAMP as substrate at 30 uM preincubated for 15 mins followed by substrate addition measured after 1 hr by luminescence assay relative to control
HCT-15 [2] = assay: Cytotoxicity against human HCT15 cells assessed as cell death after 48 hrs by MTT assay; format: functional, cell-based; details: HCT-15, 48 h
HCT-15 [3] = assay: Cytotoxicity against human HCT15 cells assessed as cell death at 25 ug/mL after 48 hrs by MTT assay relative to control; format: functional; details: HCT-15, 48 h
HCT-15 [4] = assay: Cytotoxicity against human HCT15 cells assessed as cell death at 20 ug/mL after 48 hrs by MTT assay relative to control; format: functional; details: HCT-15, 48 h
HCT-15 [5] = assay: Cytotoxicity against human HCT15 cells assessed as cell death at 15 ug/mL after 48 hrs by MTT assay relative to control; format: functional; details: HCT-15, 48 h
HCT-15 [6] = assay: Cytotoxicity against human HCT15 cells assessed as cell death at 10 ug/mL after 48 hrs by MTT assay relative to control; format: functional; details: HCT-15, 48 h
HCT-15 [7] = assay: Cytotoxicity against human HCT15 cells assessed as cell death at 5 ug/mL after 48 hrs by MTT assay relative to control; format: functional; details: HCT-15, 48 h
[8] = molecular target: T1, 3',5'-cyclic-AMP phosphodiesterase 4B; assay: Inhibition of recombinant His-tagged PDE4B1 (unknown origin) expressed in insect Sf9 cells using cAMP as substrate preincubated for 15 mins followed by substrate addition measured after 1 hr by luminescence assay

T1 sequence (Q07343 whole entry): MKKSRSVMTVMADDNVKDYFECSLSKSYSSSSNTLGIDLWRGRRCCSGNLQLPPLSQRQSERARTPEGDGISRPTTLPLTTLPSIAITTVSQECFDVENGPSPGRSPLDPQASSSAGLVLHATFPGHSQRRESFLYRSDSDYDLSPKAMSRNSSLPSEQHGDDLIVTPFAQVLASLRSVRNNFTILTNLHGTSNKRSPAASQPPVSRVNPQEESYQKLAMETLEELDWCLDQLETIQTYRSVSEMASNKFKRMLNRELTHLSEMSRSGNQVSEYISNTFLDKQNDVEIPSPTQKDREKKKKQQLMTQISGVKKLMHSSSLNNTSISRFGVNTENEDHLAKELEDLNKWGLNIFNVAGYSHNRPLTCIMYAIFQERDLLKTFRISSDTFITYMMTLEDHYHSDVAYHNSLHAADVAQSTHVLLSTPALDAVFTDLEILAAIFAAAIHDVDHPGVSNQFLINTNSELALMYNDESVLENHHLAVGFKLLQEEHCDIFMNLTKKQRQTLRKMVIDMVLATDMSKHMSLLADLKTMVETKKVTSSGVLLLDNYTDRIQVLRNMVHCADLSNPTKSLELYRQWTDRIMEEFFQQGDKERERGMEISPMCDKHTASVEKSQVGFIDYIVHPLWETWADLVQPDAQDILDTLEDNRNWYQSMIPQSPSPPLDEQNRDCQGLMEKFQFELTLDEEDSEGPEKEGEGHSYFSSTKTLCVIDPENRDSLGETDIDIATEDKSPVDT

Structure (SMILES): CS(=O)(=O)Nc1ccc(NC(=O)Cn2cc(COc3ccc([N+](=O)[O-])cc3)nn2)cc1Oc1ccccc1
inhibition [1]: 47.1%

Structure (SMILES): Cc1ccc(-c2cn(CC(=O)Nc3ccc(NS(C)(=O)=O)c(Oc4ccccc4)c3)nn2)cc1
IC50 (HCT-15 [2]): 21 µg/mL
mortality at 25 µg/mL (HCT-15 [3]): 53%
mortality at 20 µg/mL (HCT-15 [4]): 49.6%
mortality at 15 µg/mL (HCT-15 [5]): 45.6%
mortality at 10 µg/mL (HCT-15 [6]): 40.2%
mortality at 5 µg/mL (HCT-15 [7]): 37%
inhibition [1]: 36%

Structure (SMILES): CS(=O)(=O)Nc1ccc(NC(=O)Cn2cc(COc3ccc4ccccc4c3)nn2)cc1Oc1ccccc1
mortality at 25 µg/mL (HCT-15 [3]): 33.6%
mortality at 20 µg/mL (HCT-15 [4]): 25.3%
mortality at 15 µg/mL (HCT-15 [5]): 21.1%
mortality at 10 µg/mL (HCT-15 [6]): 14.3%
mortality at 5 µg/mL (HCT-15 [7]): 10.6%
inhibition [1]: 59.7%

Structure (SMILES): Cc1ccc(OCc2cn(CC(=O)Nc3ccc(NS(C)(=O)=O)c(Oc4ccccc4)c3)nn2)cc1
inhibition [1]: 56.7%

Structure (SMILES): CS(=O)(=O)Nc1ccc(NC(=O)Cn2cc(-c3ccccc3)nn2)cc1Oc1ccccc1
IC50 (HCT-15 [2]): 22.4 µg/mL
mortality at 25 µg/mL (HCT-15 [3]): 60.1%
mortality at 20 µg/mL (HCT-15 [4]): 42.7%
mortality at 15 µg/mL (HCT-15 [5]): 31%
mortality at 10 µg/mL (HCT-15 [6]): 15.2%
mortality at 5 µg/mL (HCT-15 [7]): 10.8%
IC50 [8]: 4920 nM
inhibition [8]: Dose-dependent effect
inhibition [1]: 64.1%

Structure (SMILES): COc1cccc2c1C(=O)c1c(O)c3c(c(O)c1C2=O)C[C@@](O)(C(=O)CO)C[C@@H]3O[C@H]1C[C@H](N)[C@H](O)[C@H](C)O1 [DOXORUBICIN]
IC50 (HCT-15 [2]): 90 nM

Continued, values first:

inhibition [1]: 32.9%
Structure (SMILES): Cc1cc(OCc2cn(CC(=O)Nc3ccc(NS(C)(=O)=O)c(Oc4ccccc4)c3)nn2)ccc1Cl

inhibition [1]: 51.2%
Structure (SMILES): CS(=O)(=O)Nc1ccc(NC(=O)Cn2cc(COc3ccccc3)nn2)cc1Oc1ccccc1

inhibition [1]: 94.1%
Structure (SMILES): COc1ccc(C2CNC(=O)C2)cc1OC1CCCC1 (stereo unspecified)

inhibition [1]: 42.5%
Structure (SMILES): CS(=O)(=O)Nc1ccc(NC(=O)Cn2cc(COc3ccccc3Cl)nn2)cc1Oc1ccccc1

inhibition [1]: 51.3%
Structure (SMILES): CS(=O)(=O)Nc1ccc(NC(=O)Cn2cc(COc3ccc(Cl)cc3)nn2)cc1Oc1ccccc1

inhibition [1]: inactive
Structure (SMILES): CS(=O)(=O)Nc1ccc([N+](=O)[O-])cc1Oc1ccccc1
